# Data reported in paper PMC6825211 (Nature Communications, 2019).
# “And” between values parts separate entries of the source, which are not always exact repeats. Equal values may be shown once.
# Experiments:
# MAPK1 = MAPK1 (Homo sapiens, UniProt P28482); experiment: Nanosyn kinase profiling, mobility shift assay; conditions: read-out: % inhibition by neratinib
# [1] = test system: isolated islets from WT C57Bl/6 mice; experiment: β-cell apoptosis (TUNEL), WT islets, IL-1β/IFNγ 72 h, neratinib added for last 24 h; format: cell-based, mouse; conditions: for TUNEL%: Cytokines+Nera
# NEK2 = NEK2 (Homo sapiens, UniProt P51955); experiment: Nanosyn kinase profiling, mobility shift assay; conditions: read-out: % inhibition by neratinib
# [2] = test system: obese diabetic Lepr db/db mice; experiment: db/db model: random fed blood glucose; format: in vivo, mouse; conditions: for glycemia: dbdb mice
# From the text: (§1) Data are representative of six mice per group (n = 6 for (a–f)). g–j Mice were killed at day 31. g β-cell mass (given as percentage of the whole pancreatic section from ten sections spanning the width of the pancreas; n = 5 mice/group) and quantitative analyses from triple stainings for (h) TUNEL, (i) Ki67, (j) pHH3, and (k) nuclear PDX1 expression, insulin, and DAPI expressed as percentage of TUNEL-, Ki67-, pHH3-, or nuclear PDX1-positive β-cells ± SEM. An average number of 13667 (h), 5937 (i), 7108 (j), or 4330 (k) β-cells were counted from n = 3–5 (h, i, k) or n = 5–6 (j) mice/group.
# PI3-KINASE-ALPHA = PI3-KINASE-ALPHA (Homo sapiens, UniProt P42336); experiment: Nanosyn kinase profiling, mobility shift assay; conditions: read-out: % inhibition by neratinib
# MAP4K4 = MAP4K4 (Homo sapiens, UniProt O95819); experiment: biochemical; conditions: read-out: % inhibition by neratinib
# MLD–STZ C57BL/6J mice = experiment: MLD–STZ model: intraperitoneal glucose tolerance test (ipGTT); format: in vivo, mouse; parameters: ipGTT glucose / AUC ipGTT: unit not given here
# Description: C57Bl/6J mice were injected with 40 mg/kg streptozotocin or citrate buffer for 5 consecutive days. […] In d, basal glucose values were normalized to 100%. e Insulin secretion measured from retro-orbital blood draw during an ipGTT measured before (0 min) and 15 min after glucose injection; data are expressed as the ratio of secreted insulin at 15 min/0 min (stimulatory index). f The ratio of secreted insulin and glucose is calculated at fed state. g–i Mice were killed at day 35. g β-cell mass (given as percentage of the whole pancreatic section from ten sections spanning the width of the pancreas) and quantitative analyses from triple staining for h TUNEL or i Ki67, insulin, and DAPI expressed as percentage of TUNEL- or Ki67-positive β-cells ±SEM. An average number of 2331 (h), or 26369 (i) β-cells were counted. n = 9 mice/group for (a); n = 4–12 for (b); n = 5–15 for (c) and (d); n = 12–19 for (e); n = 8–14 for (f); n = 4–9 for (g); n = 4–11 for (h); and n = 6–11 mice/groupfor (i); all from three independent experiments).
# For intraperitoneal glucose tolerance tests, mice were fasted 12 h overnight and injected i.p. with glucose (40%; B.Braun, Melsungen, Germany) at a dose of 1 g/kg body weight. Blood samples were obtained at time points 0, 15, 30, 60, 90, and 120 min for glucose measurements by using a Glucometer. For i.p. insulin tolerance tests, mice were injected with 0.75 U/kg body weight recombinant human insulin (Novolin, Novo Nordisk) after 4–5-h fasting, and glucose concentration was determined with the Glucometer. Insulin secretion was measured before (0 min) and after (15 and 30 min) i.p. injection of glucose (2 g/kg) and measured by using ultrasensitive mouse Elisa kit (ALPCO Diagnostics, Salem, NH).
# [3] = test system: obese diabetic Lepr db/db mice; experiment: db/db model: β-cell mass; format: in vivo, mouse; conditions: for BCM: dbdb mice
# From the text: as §1
# For morphometric data, ten sections (spanning the width of the pancreas) per mouse were analyzed. Pancreatic tissue area and insulin-positive area were determined by computer-assisted measurements by using a Nikon MEA53200 (Nikon GmbH, Dusseldorf, Germany) microscope, and images were acquired by using NIS-Elements software (Nikon). β-cell mass was obtained by multiplying the β-cell fraction by the weight of the pancreas.
# DAPK1 = DAPK1 (Homo sapiens, UniProt P53355); experiment: Nanosyn kinase profiling, mobility shift assay; conditions: read-out: % inhibition by neratinib
# [4] = clinical trials; cited from earlier work
# JNK2 = JNK2 (Homo sapiens, UniProt P45984); experiment: Nanosyn kinase profiling, mobility shift assay; conditions: read-out: % inhibition by neratinib
# MET = MET (Homo sapiens, UniProt P08581); experiment: Nanosyn kinase profiling, mobility shift assay; conditions: read-out: % inhibition by neratinib
# Sequence of PI3-KINASE-ALPHA (P42336 whole entry): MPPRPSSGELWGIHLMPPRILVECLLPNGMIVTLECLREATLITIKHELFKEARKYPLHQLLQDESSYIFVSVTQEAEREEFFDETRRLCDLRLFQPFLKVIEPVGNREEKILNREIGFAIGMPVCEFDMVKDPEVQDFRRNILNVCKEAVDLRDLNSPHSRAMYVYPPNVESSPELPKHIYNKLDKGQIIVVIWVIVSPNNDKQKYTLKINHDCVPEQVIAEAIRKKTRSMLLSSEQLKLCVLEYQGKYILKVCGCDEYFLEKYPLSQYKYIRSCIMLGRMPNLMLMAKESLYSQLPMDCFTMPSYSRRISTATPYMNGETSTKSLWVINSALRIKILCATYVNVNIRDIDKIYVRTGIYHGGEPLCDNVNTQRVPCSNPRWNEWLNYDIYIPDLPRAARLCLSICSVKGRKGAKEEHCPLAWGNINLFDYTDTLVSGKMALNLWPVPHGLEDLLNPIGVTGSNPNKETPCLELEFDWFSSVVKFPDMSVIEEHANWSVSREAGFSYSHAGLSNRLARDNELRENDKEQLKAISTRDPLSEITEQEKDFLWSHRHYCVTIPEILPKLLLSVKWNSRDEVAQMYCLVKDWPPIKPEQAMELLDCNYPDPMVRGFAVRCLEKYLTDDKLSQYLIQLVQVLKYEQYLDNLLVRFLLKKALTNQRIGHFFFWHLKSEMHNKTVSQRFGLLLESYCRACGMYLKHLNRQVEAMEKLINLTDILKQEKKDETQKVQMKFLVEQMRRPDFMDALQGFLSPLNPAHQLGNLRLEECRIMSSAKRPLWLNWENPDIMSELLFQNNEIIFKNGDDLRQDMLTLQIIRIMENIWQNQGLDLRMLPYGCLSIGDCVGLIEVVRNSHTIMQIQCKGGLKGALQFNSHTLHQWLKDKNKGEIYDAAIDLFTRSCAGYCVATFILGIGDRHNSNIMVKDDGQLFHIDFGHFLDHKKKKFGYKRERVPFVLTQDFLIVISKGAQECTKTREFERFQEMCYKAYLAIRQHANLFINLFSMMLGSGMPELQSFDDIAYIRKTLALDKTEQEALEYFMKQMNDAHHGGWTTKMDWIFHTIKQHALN
# Sequence of PI3-KINASE-ALPHA (P27986 whole entry partner): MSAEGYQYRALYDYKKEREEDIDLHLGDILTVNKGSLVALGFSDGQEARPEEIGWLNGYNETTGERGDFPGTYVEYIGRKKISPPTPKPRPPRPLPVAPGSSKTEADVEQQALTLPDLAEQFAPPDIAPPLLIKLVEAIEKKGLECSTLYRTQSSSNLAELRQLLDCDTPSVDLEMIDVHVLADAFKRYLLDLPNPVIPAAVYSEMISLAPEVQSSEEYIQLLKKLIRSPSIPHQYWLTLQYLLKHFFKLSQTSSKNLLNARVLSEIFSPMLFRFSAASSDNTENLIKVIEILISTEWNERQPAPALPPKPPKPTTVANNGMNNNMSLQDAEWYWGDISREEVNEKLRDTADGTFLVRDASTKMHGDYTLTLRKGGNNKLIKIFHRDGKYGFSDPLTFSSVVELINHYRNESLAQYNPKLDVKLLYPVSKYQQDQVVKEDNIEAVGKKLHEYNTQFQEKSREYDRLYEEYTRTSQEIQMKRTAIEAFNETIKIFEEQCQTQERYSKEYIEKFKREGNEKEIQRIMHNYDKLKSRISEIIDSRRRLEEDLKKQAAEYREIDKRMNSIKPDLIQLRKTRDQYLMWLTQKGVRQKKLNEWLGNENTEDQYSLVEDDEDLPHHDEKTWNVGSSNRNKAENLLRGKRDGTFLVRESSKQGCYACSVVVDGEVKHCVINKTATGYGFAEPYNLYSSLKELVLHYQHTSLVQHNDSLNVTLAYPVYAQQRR
# Sequence of JNK2 (P45984 whole entry): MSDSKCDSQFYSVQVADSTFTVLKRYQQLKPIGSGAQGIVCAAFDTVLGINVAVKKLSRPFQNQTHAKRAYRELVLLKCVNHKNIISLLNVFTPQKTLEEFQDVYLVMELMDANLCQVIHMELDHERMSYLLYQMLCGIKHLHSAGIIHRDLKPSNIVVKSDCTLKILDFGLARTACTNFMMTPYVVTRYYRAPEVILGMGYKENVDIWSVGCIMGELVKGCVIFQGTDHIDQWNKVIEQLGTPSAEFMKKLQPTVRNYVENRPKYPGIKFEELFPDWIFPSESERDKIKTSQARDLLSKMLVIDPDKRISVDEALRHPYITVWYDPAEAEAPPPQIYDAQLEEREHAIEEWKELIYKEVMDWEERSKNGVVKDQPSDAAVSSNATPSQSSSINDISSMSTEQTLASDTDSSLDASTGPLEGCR
# Sequence of NEK2 (P51955 whole entry): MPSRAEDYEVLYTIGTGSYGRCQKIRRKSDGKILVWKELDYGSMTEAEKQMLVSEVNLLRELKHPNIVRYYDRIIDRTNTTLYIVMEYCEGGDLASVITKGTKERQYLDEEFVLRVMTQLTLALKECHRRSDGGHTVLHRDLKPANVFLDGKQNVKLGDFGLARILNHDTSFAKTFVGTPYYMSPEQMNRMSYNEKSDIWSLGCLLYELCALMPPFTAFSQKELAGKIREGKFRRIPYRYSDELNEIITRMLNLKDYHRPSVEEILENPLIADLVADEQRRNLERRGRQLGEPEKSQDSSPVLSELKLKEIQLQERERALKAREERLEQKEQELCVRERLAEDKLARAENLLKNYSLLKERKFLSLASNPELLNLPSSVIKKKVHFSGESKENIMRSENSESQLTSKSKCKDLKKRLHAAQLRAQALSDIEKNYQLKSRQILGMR
# Sequence of MAP4K4 (O95819 whole entry, species assumed): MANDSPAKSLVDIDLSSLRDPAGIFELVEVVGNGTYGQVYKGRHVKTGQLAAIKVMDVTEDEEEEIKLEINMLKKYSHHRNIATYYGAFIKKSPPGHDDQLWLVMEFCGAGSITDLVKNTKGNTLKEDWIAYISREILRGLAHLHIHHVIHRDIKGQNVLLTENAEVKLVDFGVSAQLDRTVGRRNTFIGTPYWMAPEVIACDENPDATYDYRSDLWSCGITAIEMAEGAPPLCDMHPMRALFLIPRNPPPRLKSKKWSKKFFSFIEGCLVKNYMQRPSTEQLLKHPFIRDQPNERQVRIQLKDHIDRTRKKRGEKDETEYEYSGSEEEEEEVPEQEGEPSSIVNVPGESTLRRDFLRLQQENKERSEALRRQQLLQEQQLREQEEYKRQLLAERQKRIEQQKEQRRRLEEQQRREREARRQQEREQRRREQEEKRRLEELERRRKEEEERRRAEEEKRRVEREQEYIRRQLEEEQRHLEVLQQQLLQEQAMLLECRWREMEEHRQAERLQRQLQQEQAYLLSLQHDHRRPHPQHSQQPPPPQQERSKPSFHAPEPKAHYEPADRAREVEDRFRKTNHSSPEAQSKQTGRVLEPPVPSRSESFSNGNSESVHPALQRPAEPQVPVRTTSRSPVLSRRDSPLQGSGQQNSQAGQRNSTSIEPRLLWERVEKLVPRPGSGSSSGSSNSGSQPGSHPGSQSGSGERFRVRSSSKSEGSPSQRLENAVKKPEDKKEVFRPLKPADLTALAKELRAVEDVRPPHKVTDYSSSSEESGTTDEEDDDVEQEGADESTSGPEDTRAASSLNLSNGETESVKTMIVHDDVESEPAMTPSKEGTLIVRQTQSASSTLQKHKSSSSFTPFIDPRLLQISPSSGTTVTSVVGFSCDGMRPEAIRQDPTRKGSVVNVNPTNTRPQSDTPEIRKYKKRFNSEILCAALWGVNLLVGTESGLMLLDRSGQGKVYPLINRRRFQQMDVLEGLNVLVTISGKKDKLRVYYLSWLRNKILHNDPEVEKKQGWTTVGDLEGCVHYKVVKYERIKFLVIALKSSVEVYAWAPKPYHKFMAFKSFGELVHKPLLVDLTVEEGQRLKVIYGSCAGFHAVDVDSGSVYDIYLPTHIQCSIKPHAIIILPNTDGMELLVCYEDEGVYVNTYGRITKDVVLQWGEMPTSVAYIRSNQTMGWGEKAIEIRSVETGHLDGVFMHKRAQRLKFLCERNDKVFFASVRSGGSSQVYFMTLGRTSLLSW
# Sequence of MAPK1 (P28482 whole entry): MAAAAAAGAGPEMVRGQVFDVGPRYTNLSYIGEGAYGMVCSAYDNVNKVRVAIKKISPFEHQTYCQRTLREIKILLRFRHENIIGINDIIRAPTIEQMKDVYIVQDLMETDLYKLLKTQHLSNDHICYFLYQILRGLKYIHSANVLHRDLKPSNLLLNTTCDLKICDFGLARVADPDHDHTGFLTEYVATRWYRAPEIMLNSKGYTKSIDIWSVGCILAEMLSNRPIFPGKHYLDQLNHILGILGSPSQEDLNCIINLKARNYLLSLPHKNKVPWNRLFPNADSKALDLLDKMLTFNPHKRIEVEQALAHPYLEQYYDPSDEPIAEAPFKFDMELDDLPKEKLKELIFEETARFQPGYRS
compound,measurement,setting,value
CCOc1cc2ncc(C#N)c(Nc3ccc(OCc4ccccn4)c(Cl)c3)c2cc1NC(=O)/C=C/CN(C)C [neratinib],inhibition at 10 µM,MAPK1,12%
same,TUNEL%,[1]; MEAN,0.4111%
same,TUNEL%,[1]; individual replicates,0.4072% and 0.3399% and 0.4861%
same,β-cell survival after cytokine-induced apoptosis,"[1]; IL-1β/IFNγ 48 h, then 10 μM neratinib another 24 h",fully restored β-cell survival
same,inhibition at 10 µM,NEK2,68%
same,"blood glucose, start to after 30 days of therapy","[2]; db/db neratinib group, no significant increase",312 to 384 mg/dL
same,blood glucose levels after 4 weeks,"[2]; db/db, 5 mg/kg i.p. daily",did not significantly increase
same,glycemia,"[2]; 0 days after NERA injection, MEAN",311.667 mg/dL
same,glycemia,"[2]; 0 days after NERA injection, individual mice",219 mg/dL and 243 mg/dL and 260 mg/dL and 443 mg/dL and 266 mg/dL and 439 mg/dL
same,glycemia,"[2]; 31 days after NERA injection, individual mice",405 mg/dL and 313 mg/dL and 425 mg/dL and 317 mg/dL and 380 mg/dL and 462 mg/dL
same,inhibition at 10 µM,PI3-KINASE-ALPHA,18%
same,inhibition at 10 µM,MAP4K4,73%
same,glucose tolerance in STZ mice,MLD–STZ C57BL/6J mice; 5 mg/kg i.p. daily,significantly improved glucose tolerance
same,ipGTT glucose,"MLD–STZ C57BL/6J mice; NeraCtr, 0 min, Mean",59.25
same,ipGTT glucose,"MLD–STZ C57BL/6J mice; NeraCtr, 0 min after glc, individual mice",51 and 48 and 70 and 68
same,ipGTT glucose,"MLD–STZ C57BL/6J mice; NeraCtr, 15 min, Mean",210.75
same,ipGTT glucose,"MLD–STZ C57BL/6J mice; NeraCtr, 15 min after glc, individual mice",211 and 183 and 258 and 191
same,ipGTT glucose,"MLD–STZ C57BL/6J mice; NeraCtr, 30 min, Mean",316.5
same,ipGTT glucose,"MLD–STZ C57BL/6J mice; NeraCtr, 30 min after glc, individual mice",290 and 203 and 500 and 273
same,ipGTT glucose,"MLD–STZ C57BL/6J mice; NeraCtr, 60 min, Mean",219.25
same,ipGTT glucose,"MLD–STZ C57BL/6J mice; NeraCtr, 60 min after glc, individual mice",166 and 171 and 373 and 167
same,ipGTT glucose,"MLD–STZ C57BL/6J mice; NeraCtr, 90 min, Mean",134.5
same,ipGTT glucose,"MLD–STZ C57BL/6J mice; NeraCtr, 90 min after glc, individual mice",133 and 136 and 158 and 111
same,ipGTT glucose,"MLD–STZ C57BL/6J mice; NeraCtr, 120 min, MEAN",96
same,ipGTT glucose,"MLD–STZ C57BL/6J mice; NeraCtr, 120 min after glc, individual mice",91 and 96 and 116 and 81
same,AUC ipGTT,"MLD–STZ C57BL/6J mice; NeraCtr, individual mice",20407.5 and 18322.5 and 14535 and 19072.5
same,ipGTT glucose,"MLD–STZ C57BL/6J mice; NeraSTZ, 0 min, mean line",61.5
same,ipGTT glucose,"MLD–STZ C57BL/6J mice; NeraSTZ, 0 min after glc, individual mice",67 and 66 and 51 and 57 and 80 and 63 and 62 and 69 and 65 and 44
same,ipGTT glucose,"MLD–STZ C57BL/6J mice; NeraSTZ, 15 min, mean line",285.917
same,ipGTT glucose,"MLD–STZ C57BL/6J mice; NeraSTZ, 15 min after glc, individual mice",304 and 272 and 259 and 246 and 291 and 315 and 312 and 420 and 217 and 264
same,ipGTT glucose,"MLD–STZ C57BL/6J mice; NeraSTZ, 30 min, mean line",319.5
same,ipGTT glucose,"MLD–STZ C57BL/6J mice; NeraSTZ, 30 min after glc, individual mice",308 and 348 and 303 and 268 and 319 and 424 and 341 and 371 and 315 and 292 and 282 and 263
same,ipGTT glucose,"MLD–STZ C57BL/6J mice; NeraSTZ, 60 min, mean line",284.417
same,ipGTT glucose,"MLD–STZ C57BL/6J mice; NeraSTZ, 60 min after glc, individual mice",274 and 307 and 368 and 214 and 271 and 308 and 291 and 343 and 321 and 283 and 219
same,ipGTT glucose,"MLD–STZ C57BL/6J mice; NeraSTZ, 90 min after glc, individual mice",181 and 290 and 234 and 159 and 228 and 264 and 184 and 260 and 250 and 205 and 248 and 195
same,ipGTT glucose,"MLD–STZ C57BL/6J mice; NeraSTZ, 120 min after glc, individual mice",136 and 229 and 175 and 112 and 213 and 180 and 169 and 210 and 211 and 164 and 187
same,AUC ipGTT,"MLD–STZ C57BL/6J mice; NeraSTZ, individual mice",27682.5 and 33750 and 31770 and 23017.5 and 30135 and 34725 and 29565 and 36360 and 31732.5
same,β-cell mass,"[3]; db/db, day 31",increased β-cell mass
same,BCM,[3]; Mean,4.571
same,BCM,[3]; individual mice,1.526 and 8.3226 and 3.26 and 4.639 and 5.1069
same,inhibition at 10 µM,DAPK1,4%
same,most common neratinib-associated adverse events,[4],"diarrhea, vomiting, and nausea"
same,inhibition at 10 µM,JNK2,84%
same,inhibition at 10 µM,MET,28%
